According to patent US11746116B2, “Antibiotic resistance breakers” (KING'S COLLEGE LONDON, priority 2017, dated 2023):
Converted amounts (≈) assume the structure as drawn. “And” between values parts separate entries of the source, which are not always exact repeats. Equal values may be shown once. Read-outs that look alike come from different tables or passages of the source.

Experiments:
Ab17978 = test: MIC, microdilution broth method; format: cell-based; conditions: for MIC, Ab17978: ESKAPE panel, Gram-negative
PA01 = test: MIC, microdilution broth method; format: cell-based, Pseudomonas aeruginosa; conditions: for MIC, PA01: ESKAPE panel, Gram-negative
EMRSA15 = test: MIC, microdilution broth method; format: cell-based, Staphylococcus aureus; conditions: for MIC, EMRSA15: in µg/mL
MSSA9144 = test: MIC, microdilution broth method; format: cell-based, Staphylococcus aureus; conditions: for MIC, MSSA9144: ESKAPE panel, Gram-positive
AYE = test: MIC, microdilution broth method; format: cell-based, Acinetobacter baumannii; conditions: for MIC, AYE: ESKAPE panel, Gram-negative, in µg/mL
EC12923 = test: MIC, microdilution broth method; format: cell-based; conditions: for MIC, EC12923: ESKAPE panel, Gram-negative, in µg/mL
EMRSA16 = test: MIC, microdilution broth method; format: cell-based, Staphylococcus aureus; conditions: for MIC, EMRSA16: in µg/mL
PA13437 = test: MIC, microdilution broth method; format: cell-based; conditions: for MIC, PA13437: ESKAPE panel, Gram-negative
KP13368 = test: MIC, microdilution broth method; format: cell-based; conditions: for MIC, KP13368: ESKAPE panel, Gram-negative
[1] = system: Staphylococcus aureus ATCC29213; test: Murine thigh infection model, thigh bacterial burden; format: in vivo; conditions: individual thigh samples, ICR mice
VRE12201 = test: MIC, microdilution broth method; format: cell-based, Enterococcus faecalis; conditions: for MIC, VRE12201: ESKAPE panel, Gram-positive
VSE775 = test: MIC, microdilution broth method; format: cell-based, Enterococcus faecalis; set-up: MIC, VSE775: unit not given beside the values; conditions: for MIC, VSE775: ESKAPE panel, Gram-positive
M6 = test: MIC, microdilution broth method; format: cell-based; conditions: for MIC, M6: ESKAPE panel, Gram-negative
VRE12204 = test: MIC, microdilution broth method; format: cell-based, Enterococcus faecium; conditions: ESKAPE panel, Gram-positive; in µg/mL
SH1 = test: MIC, extended Gram-positive panel; format: cell-based, S. haemolyticus; conditions: S. haemolyticus SH1
SA7 = test: MIC, extended Gram-positive panel; format: cell-based, S. aureus; conditions: S. aureus SA7; gyrA, 84:S => L; grlA, 80:S => F
SA5 = format: cell-based, S. aureus; conditions: S. aureus SA5; gyrA, 84:S => L; grlA, 80:S => F
EF1 = test: MIC, extended Gram-positive panel; format: cell-based, E.faecalis; conditions: E.faecalis EF1
SA6 = test: MIC, extended Gram-positive panel; format: cell-based, S. aureus; conditions: S. aureus SA6; gyrA, 84:S => V; grlA, 80:S => F
SA9 = format: cell-based, S. aureus; conditions: S. aureus SA9; gyrA, 84:S => L; grlA, 80:S => F
SA8 = test: MIC, extended Gram-positive panel; format: cell-based, S. aureus; conditions: S. aureus SA8; gyrA, 84:S => L; grlA, 80:S => F
SA2 = test: MIC, extended Gram-positive panel; format: cell-based, S. aureus; conditions: S. aureus SA2
SA1 = test: MIC, extended Gram-positive panel; format: cell-based, S. aureus; conditions: S. aureus SA1; gyrA, 84:S => L; grlA, 80:S => F
SA4 = test: MIC, extended Gram-positive panel; format: cell-based, S. aureus; conditions: S. aureus SA4; gyrA, 84:S => L; grlA, 80:S => F
SE1 = format: cell-based, S. epidermidis; conditions: S. epidermidis SE1; in µg/mL
EF2 = test: MIC, extended Gram-positive panel; format: cell-based, E.faecium; conditions: E.faecium EF2; in µg/mL
SA3 = format: cell-based, S. aureus; conditions: S. aureus SA3; gyrA, 84:S => L; grlA, 80:S => F

Compound: C[C@H]1COc2c(N3CCC(Nc4ncccn4)C3)c(F)cc3c(=O)c(C(=O)O)cn1c23 (stereo partly drawn) [KSN-82-L7, (3S)-9-fluoro-3-methyl-7-oxo-10-(3-(pyrimidin-2-ylamino)pyrrolidin-1-yl)-2,3-dihydro-7H-[1,4]oxazino[2,3,4-ij]quinoline-6-carboxylic acid]
- MIC, Ab17978 (Ab17978; in µg/mL): 0.5
- MIC, PA01 (PA01; in µg/mL): 8-32
- MIC, EMRSA15 (EMRSA15; ESKAPE panel, Gram-positive): 4
- MIC, MSSA9144 (MSSA9144; in µg/mL): 0.06
- MIC, AYE (AYE): 16-32
- MIC, EC12923 (EC12923): 1
- MIC, EMRSA16 (EMRSA16; ESKAPE panel, Gram-positive): 4
- MIC, PA13437 (PA13437): > 32 µg/mL
- MIC, KP13368 (KP13368): 16 µg/mL (≈ 37.6 µM)
- Bacterial burden data ([1]; 20 mg/kg): 6.42E+02 CFU/g and 1.94E+03 CFU/g and 1.60E+03 CFU/g and 3.05E+03 CFU/g and 1.51E+03 CFU/g and 1.18E+04 CFU/g and 2.48E+03 CFU/g and 3.92E+03 CFU/g and 5.78E+02 CFU/g and 1.80E+03 CFU/g
- Bacterial burden data ([1]; 50 mg/kg): 5.94E+02 CFU/g and 2.63E+03 CFU/g and 2.00E+03 CFU/g and 1.44E+03 CFU/g and 9.34E+02 CFU/g and 1.14E+03 CFU/g and 2.58E+03 CFU/g and 1.98E+03 CFU/g and 5.78E+02 CFU/g and 1.70E+03 CFU/g
- MIC, VRE12201 (VRE12201; in µg/mL): 0.5
- MIC, VSE775 (VSE775): 0.5
- MIC, M6 (M6; in µg/mL): 4-8
- MIC, VRE12204 (VRE12204): 4

Compound: C[C@H]1COc2c(N3CC[C@@H](Nc4ncc(F)cn4)C3)c(F)cc3c(=O)c(C(=O)O)cn1c23 [KSN-L34, (S)-9-fluoro-10-((R)-3-((5-fluoropyrimidin-2-yl)amino)pyrrolidin-1-yl)-3-methyl-7-oxo-2,3-dihydro-7H-[1,4]oxazino[2,3,4-ij]quinoline-6-carboxylic acid]
- MIC (Ab17978; Acinetobacter baumannii (AB17978), Gram-Negative, read-out: MIC): ≤ 0.125 µg/mL
- MIC, Ab17978 (Ab17978; in µg/mL): ≤0.125
- MIC, PA01 (PA01; in µg/mL): 4
- MIC (PA01; Pseudomonas aeruginosa (PA01), Gram-Negative, read-out: MIC): 4 µg/mL (≈ 9.02 µM)
- MIC, EMRSA15 (EMRSA15; EMRSA15 (Table 16, role of the terminal pyrimidine ring)): 0.5
- MIC, EMRSA15 (EMRSA15; ESKAPE panel, Gram-positive): 0.5
- MIC (EMRSA15; Staphylococcus aureus, Staphylococcus aureus (EMRSA15), Gram-Positive (Table 14), read-out: MIC): 0.5 µg/mL (≈ 1.13 µM)
- MIC, MSSA9144 (MSSA9144; in µg/mL): ≤0.125
- MIC (MSSA9144; Staphylococcus aureus (MSSA9144), Gram-Positive, read-out: MIC): ≤ 0.125 µg/mL
- MIC (AYE; Acinetobacter baumannii (AYE), Gram-Negative, read-out: MIC): 4 µg/mL (≈ 9.02 µM)
- MIC, AYE (AYE): 4
- MIC, EC12923 (EC12923): 0.125
- MIC (EC12923; Escherichia coli (EC12923), Gram-Negative, read-out: MIC): 0.125 µg/mL (≈ 0.282 µM)
- MIC, EMRSA16 (EMRSA16; EMRSA16 (Table 16, role of the terminal pyrimidine ring)): 1
- MIC, EMRSA16 (EMRSA16; ESKAPE panel, Gram-positive): 1
- MIC (EMRSA16; Staphylococcus aureus (EMRSA16), Gram-Positive (Table 14), read-out: MIC): 1 µg/mL (≈ 2.26 µM)
- MIC, PA13437 (PA13437): > 32 µg/mL
- MIC, KP13368 (KP13368): 32 µg/mL (≈ 72.2 µM)
- MIC (KP13368; Klebsiella pneumoniae (KP13368), Gram-Negative, read-out: MIC): 32 µg/mL (≈ 72.2 µM)
- MIC, VRE12201 (VRE12201; in µg/mL): ≤0.125
- MIC (VRE12201; Enterococcus faecalis, Enterococcus (VRE12201), Gram-Positive, read-out: MIC): ≤ 0.125 µg/mL
- MIC, VSE775 (VSE775): ≤0.125
- MIC (VSE775; Enterococcus faecalis, Enterococcus (VRE775), Gram-Positive, read-out: MIC): ≤ 0.125 µg/mL
- MIC, M6 (M6; in µg/mL): 2
- MIC (M6; Klebsiella pneumoniae (M6), Gram-Negative, read-out: MIC): 2 µg/mL (≈ 4.51 µM)
- MIC, VRE12204 (VRE12204): 1

Compound: C[C@H]1COc2c(N3CC[C@@H](N(C)C4CC4)C3)c(F)cc3c(=O)c(C(=O)O)cn1c23 [KSN-L36, (S)-10-((R)-3-(cyclopropyl(methyl)amino)pyrrolidin-1-yl)-9-fluoro-3-methyl-7-oxo-2,3-dihydro-7H-[1,4]oxazino[2,3,4-ij]quinoline-6-carboxylic acid]
- MIC, Ab17978 (Ab17978; in µg/mL): 0.5-1
- MIC, PA01 (PA01; in µg/mL): 16
- MIC, EMRSA15 (EMRSA15; ESKAPE panel, Gram-positive): 32
- MIC, MSSA9144 (MSSA9144; in µg/mL): 0.25-0.5
- MIC, AYE (AYE): 64
- MIC, EC12923 (EC12923): 0.5-1
- MIC, EMRSA16 (EMRSA16; ESKAPE panel, Gram-positive): 32
- MIC, PA13437 (PA13437): > 64 µg/mL
- MIC, KP13368 (KP13368): 32 µg/mL (≈ 79.7 µM)
- MIC, VRE12201 (VRE12201; in µg/mL): 2
- MIC, VSE775 (VSE775): 4
- MIC, M6 (M6; in µg/mL): 2-4
- MIC, VRE12204 (VRE12204): 8

Compound: O=C(O)c1cn(C2CC2)c2cc(N3CCN(Cc4cccc5ccccc45)CC3)c(F)cc2c1=O [ML-77-005]
- MIC (SH1): 4 µg/mL (≈ 8.48 µM)
- MIC (SA7): 2 µg/mL (≈ 4.24 µM)
- MIC (Ab17978; Ab17978, +PMBN): −.12-0.25
- MIC (Ab17978; Ab17978, Normal (no PMBN), in µg/mL): 4
- MIC (SA5): 2 µg/mL (≈ 4.24 µM)
- MIC (EF1): 2 µg/mL (≈ 4.24 µM)
- MIC (SA6): 2 µg/mL (≈ 4.24 µM)
- MIC (PA01; PA01, +PMBN, in µg/mL): <0.12-0.25
- MIC (SA9): 2 µg/mL (≈ 4.24 µM)
- MIC (SA8): 2 µg/mL (≈ 4.24 µM)
- MIC (SA2): 0.5 µg/mL (≈ 1.06 µM)
- MIC (SA1): 2 µg/mL (≈ 4.24 µM)
- MIC (MSSA9144; MSSA9144, in µg/mL): 0.25-8
- MIC (SA4): 2 µg/mL (≈ 4.24 µM)
- MIC (PA13437; PA13437, +PMBN): 32 µg/mL (≈ 67.9 µM)
- MIC (SE1): 0.25-2
- MIC (EF2): 2
- MIC (SA3): 2 µg/mL (≈ 4.24 µM)
- MIC (VRE12201; VRE12201, in µg/mL): 0.5
- MIC (M6; M6, +PMBN, in µg/mL): 0.5
- MIC (M6; M6, Normal (no PMBN), in µg/mL): 32-64

Compound: CCn1cc(C(=O)O)c(=O)c2cc(F)c(N3CCNCC3)cc21 [NOR]
- MIC (SA4): 64 µg/mL (≈ 200 µM)
